Nine compounds from PubChem BioAssay (NCI) can be followed below.

SMILES strings stand for the structures.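 Values below derive from 48-hour exposures of cells grown in 96-well plates, with endpoints linearly interpolated between the two concentrations bracketing the appropriate inhibition level. GI50 = concentration required for 50% inhibition of growth. Definition used: TGI = concentration required for complete inhibition of growth.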 Where a SMILES comes first, the peptide text is derived from it. [ ]: non-standard residue; d: D form. Phe(F5) = N[CH](Cc1c(F)c(F)c(F)c(F)c1F)C(=O)O

Among the test systems are CAKI-1 renal; OVCAR-5 ovarian; MALME-3M melanoma; A498 renal; PC-3 prostate; A549 NSCLC; RXF 393 renal; COLO 205 colon; 786-0 renal; HCT-15 colon.
Experiment in all cases: NCI anticancer screen, dose series, 48 h

`CC1=C(C(=O)OCc2ccccc2)C(c2ccc3c(c2)OCO3)n2c(nc3ccccc32)N1` (configuration not stated): the GI50 in the assay with CAKI-1 renal is 0.275 µM; with OVCAR-5 ovarian, more than 100 µM; in the assay on MALME-3M melanoma it was 0.37 µM; with A498 renal, 0.362 µM; in the assay on PC-3 prostate, 0.458 µM; in the assay with A549 NSCLC it was 0.69 µM. Further, the GI50 in the assay with RXF 393 renal is 0.305 µM; in the assay on COLO 205 colon it was 0.417 µM; in the assay with 786-0 renal, 0.47 µM; in the assay on HCT-15 colon, 0.36 µM. Besides, the TGI in the assay with CAKI-1 renal, in the assay on OVCAR-5 ovarian, in the assay on MALME-3M melanoma, in the assay on A498 renal, with PC-3 prostate and with A549 NSCLC was more than 100 µM in each case. For the same compound, the TGI with RXF 393 renal, with COLO 205 colon, in the assay with 786-0 renal and with HCT-15 colon was more than 100 µM in each case.

As for `CCOC(=O)Cc1c[nH]c(=S)[nH]c1=O`, the GI50 in the assay on CAKI-1 renal, in the assay on OVCAR-5 ovarian, in the assay with MALME-3M melanoma, in the assay with A498 renal, with PC-3 prostate and in the assay with A549 NSCLC was more than 100 µM throughout. Further, the GI50 with RXF 393 renal, in the assay on COLO 205 colon, in the assay with 786-0 renal and in the assay with HCT-15 colon was more than 100 µM each time. Moreover, the TGI with CAKI-1 renal, in the assay with OVCAR-5 ovarian, in the assay with MALME-3M melanoma, in the assay with A498 renal, with PC-3 prostate and in the assay with A549 NSCLC was more than 100 µM in each case. The TGI in the assay with RXF 393 renal, with COLO 205 colon, in the assay on 786-0 renal and in the assay on HCT-15 colon was more than 100 µM each time.

Regarding `COC(=O)C(CC(C)C)NC(=O)C(Cc1cnc[nH]1)NC(=O)CNC(=O)C(NC(=O)C(C)NC(=O)C(Cc1c[nH]c2ccccc12)NC(=O)C(CCC(=O)O)NC(=O)C(N)Cc1c(F)c(F)c(F)c(F)c1F)C(C)C` (configuration not stated) (H-[Phe(F5)]EWAVGHL-OMe; configuration not given here), the GI50 in the assay on CAKI-1 renal, with A498 renal, in the assay on A549 NSCLC, in the assay with RXF 393 renal, with COLO 205 colon and in the assay with 786-0 renal was more than 100 µM in each case. Besides, the GI50 in the assay on HCT-15 colon is more than 100 µM. In addition, the TGI in the assay on CAKI-1 renal is more than 100 µM; in the assay with OVCAR-5 ovarian it was more than 12.5 µM; in the assay on MALME-3M melanoma, more than 12.5 µM; in the assay with A498 renal, more than 100 µM; in the assay with PC-3 prostate, more than 12.5 µM; in the assay on A549 NSCLC, more than 100 µM. The TGI in the assay on RXF 393 renal, with COLO 205 colon, in the assay on 786-0 renal and in the assay on HCT-15 colon was more than 100 µM throughout.

As for `Cc1ccc(C(=O)Nc2ccc(S(=O)(=O)O)c3cc(S(=O)(=O)O)cc(S(=O)(=O)O)c23)cc1NC(=O)c1cccc(N)c1`, the TGI with CAKI-1 renal, with OVCAR-5 ovarian, in the assay on MALME-3M melanoma, in the assay with A498 renal, in the assay on PC-3 prostate and in the assay with A549 NSCLC was more than 100 µM each time. Further, the TGI in the assay with RXF 393 renal, with COLO 205 colon, with 786-0 renal and in the assay on HCT-15 colon was more than 100 µM in each case.

For `O=C(O)CS(=O)(=O)C(c1ccccc1)c1ccccc1`, the TGI with CAKI-1 renal, in the assay with OVCAR-5 ovarian, with MALME-3M melanoma, in the assay on A498 renal, in the assay on PC-3 prostate and in the assay on A549 NSCLC was more than 100 µM in each case. In addition, the TGI in the assay on RXF 393 renal, with COLO 205 colon, with 786-0 renal and with HCT-15 colon was more than 100 µM in each case.

Turning to `CC12CCC=CC1CCC1C2CCC2(C)C(c3ccc(=O)oc3)CCC12O` (configuration not stated), the GI50 is 0.0942 µM with CAKI-1 renal; 0.176 µM in the assay with OVCAR-5 ovarian; 0.0423 µM in the assay with MALME-3M melanoma; 0.0496 µM in the assay with A498 renal; 0.0534 µM in the assay with PC-3 prostate; 0.0295 µM in the assay on A549 NSCLC. For the same compound, the GI50 was 0.0167 µM with RXF 393 renal, 0.333 µM with COLO 205 colon, 0.0618 µM with 786-0 renal and 0.0923 µM in the assay with HCT-15 colon. The TGI in the assay on CAKI-1 renal came out at 0.548 µM; in the assay with OVCAR-5 ovarian, 0.485 µM; in the assay on MALME-3M melanoma, 0.204 µM; in the assay on A498 renal, 0.457 µM; with PC-3 prostate it was 0.317 µM; in the assay on A549 NSCLC, 0.111 µM. Further, the TGI with RXF 393 renal is 0.047 µM; in the assay with COLO 205 colon, 1.56 µM; in the assay with 786-0 renal, 0.357 µM; in the assay on HCT-15 colon it was 0.428 µM.

As to `N#CC(C#N)=Cc1ccc(-c2ccc(-c3nc4ccccc4s3)cc2)o1`, the GI50 in the assay on CAKI-1 renal is 25 µM; in the assay on OVCAR-5 ovarian it was 11.9 µM; in the assay on MALME-3M melanoma, 22.2 µM; in the assay on A498 renal, 0.346 µM; in the assay on PC-3 prostate it was 9.54 µM; with A549 NSCLC, 14.3 µM. Besides, the GI50 in the assay with RXF 393 renal is 42.4 µM; in the assay on COLO 205 colon it was 20.6 µM; in the assay with 786-0 renal it was 3.15 µM; with HCT-15 colon, 11.9 µM. Also, the TGI is more than 100 µM in the assay with CAKI-1 renal; 24.2 µM with OVCAR-5 ovarian; more than 100 µM with MALME-3M melanoma; 0.985 µM with A498 renal; 22.5 µM in the assay with PC-3 prostate; 38.5 µM with A549 NSCLC. The TGI in the assay on RXF 393 renal is more than 100 µM; with COLO 205 colon, 55.3 µM; with 786-0 renal it was 16 µM; with HCT-15 colon, 50.4 µM.

Consider `Nc1ncnc2sc(=S)c3c(c12)CCC3`, for which the GI50 was 30.9 µM with CAKI-1 renal; 42 µM in the assay on OVCAR-5 ovarian; 66.4 µM with MALME-3M melanoma; 28.2 µM in the assay on A498 renal; 32.1 µM with PC-3 prostate; 44.8 µM with A549 NSCLC. Further, the GI50 with RXF 393 renal was 26.9 µM; in the assay on COLO 205 colon, 25.1 µM; in the assay with 786-0 renal, 46.6 µM; in the assay on HCT-15 colon, 38.2 µM. In addition, the TGI with CAKI-1 renal was more than 100 µM; with OVCAR-5 ovarian, more than 100 µM; in the assay on MALME-3M melanoma, more than 100 µM; in the assay with A498 renal it was 79.5 µM; in the assay on PC-3 prostate, more than 100 µM; in the assay with A549 NSCLC, more than 100 µM. The TGI was 55.1 µM in the assay with RXF 393 renal, 62.6 µM with COLO 205 colon, more than 100 µM in the assay with 786-0 renal and more than 100 µM with HCT-15 colon.

On to `O=C(O)CSSCC(=O)O`, for which the TGI with CAKI-1 renal, in the assay on OVCAR-5 ovarian, in the assay with MALME-3M melanoma, with A498 renal, with PC-3 prostate and in the assay with A549 NSCLC was more than 100 µM throughout. For the same compound, the TGI with RXF 393 renal, in the assay on COLO 205 colon, in the assay on 786-0 renal and with HCT-15 colon was more than 100 µM throughout.
